The values that follow come from patent publication US6867226B2, “Serotonin 5-HT3 receptor partial activator” (Meiji Seika Kaisha, Ltd., priority 1996, dated 2005).

Broadly, the inhibition is the change of the read-out against control, counted positive when it falls.

The target in series [1] is T1, serotonin 5-HT3 receptor (Cavia porcellus, UniProt O70212).
T1 construct: Longitudinal muscle samples of about 20 mm were prepared from the ileum of Hartley male guinea pigs; from tissue; host or cells: guinea pig (Hartley, male) ileum longitudinal muscle
T1 sequence (O70212 20-490): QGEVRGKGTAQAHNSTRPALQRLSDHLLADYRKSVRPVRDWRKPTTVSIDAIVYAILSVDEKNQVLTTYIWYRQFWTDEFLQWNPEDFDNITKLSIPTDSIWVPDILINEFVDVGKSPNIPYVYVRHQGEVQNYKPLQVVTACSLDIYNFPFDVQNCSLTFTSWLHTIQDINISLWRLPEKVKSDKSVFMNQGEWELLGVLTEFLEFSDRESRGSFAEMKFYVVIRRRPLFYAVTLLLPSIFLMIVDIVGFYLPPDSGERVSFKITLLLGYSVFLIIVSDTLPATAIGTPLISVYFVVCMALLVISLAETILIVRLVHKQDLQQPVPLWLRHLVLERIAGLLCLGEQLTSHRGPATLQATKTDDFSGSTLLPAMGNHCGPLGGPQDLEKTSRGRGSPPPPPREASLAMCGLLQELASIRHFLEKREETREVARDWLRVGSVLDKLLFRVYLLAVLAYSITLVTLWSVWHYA
Description: Serotonin 5-HT3 receptor antagonism, inhibition of 5-HT-induced contraction of guinea pig ileum longitudinal muscle. It counts as cell-based. Conditions: inhibition ratio of contraction by 10 μM serotonin 5-HT after treatment with test compound 10 μM; Hartley guinea pig ileum. The protocol: (§1) Of the novel and known benzoxazole compounds according to the present invention, typical compounds and the compounds disclosed in JP-A-6-345744, namely 5-methoxy-2-(4-methyl-1-piperazinyl)benzoxazole (A) and 2-(4-methyl-1-piperazinyl)naphtho[2,3-d]oxazole (B), were measured for their serotonin 5-HT3 receptor antagonism and serotonin 5-HT3 receptor activating action by the following method, with the results shown in Table 1. Test compounds of the present invention are shown by the Inventive Example numbers.
(§2) Longitudinal muscle samples of about 20 mm were prepared from the ileum of Hartley male guinea pigs (500 to 800 g). Each of the thus prepared samples was hung down in a Magnus tube with a resting tension of about 0.5 g to measure the isometric contraction reaction. Serotonin 5-HT was applied with a concentration of from 0.1 to 30 μM to the sample which has been subjected twice in advance to 1 hour of treatment with 0.3 μM serotonin 5-HT to effect desensitization of serotonin 5-HT4 receptor.
The i.a. value was expressed as the ratio of the maximum reaction of each compound when the maximum contraction reaction obtained by 10 μM of serotonin 5-HT was defined as 1. The pD2 value was. expressed as the negative logarithmic value of concentration (molar concentration) by which 50% of the maximum contraction reaction of each test compound can be obtained. […]

Series [2] deals with T1, serotonin 5-HT3 receptor. Description: 5-HT3 receptor activating action test, isometric contraction of guinea pig ileum longitudinal muscle. Conditions: for EC50: negative logarithm of molar concentration giving 50% of the compound's maximum contraction, read-out: Activation Action pD2 (converted); for EC50 / Activation Action i.a.: guinea pig ileum; for Activation Action i.a.: ratio of maximum reaction of compound to maximum contraction by 10 μM serotonin 5-HT defined as 1, 5-HT4 receptor desensitized; for serotonin 5-HT3 receptor activating action (in words): guinea pig ileum contraction, summary of Table 1. It is filed as cell-based. The protocol: 5-HT3 Receptor Activating Action Test
as §1, §2
The i.a. value was expressed as the ratio of the maximum reaction of each compound when the maximum contraction reaction obtained by 10 μM of serotonin 5-HT was defined as 1. The pD2 value was. expressed as the negative logarithmic value of concentration (molar concentration) by which 50% of the maximum contraction reaction of each test compound can be obtained. Also, antagonism of each test compound against the serotonin 5-HT3 receptor was calculated as the inhibition ratio of the contraction obtained by applying 10 μM of serotonin 5-HT (manufactured by Sigma) to a sample which has been treated with […] of each test sample to the contraction obtained by applying 10 μM of serotonin 5-HT to the sample before treatment.

Another series relates to mice. Description: Toxicity test, oral administration to mice. It is filed as in vivo. The note with it: dose of 300 mg/kg, dissolved in water, five-week-old male mice (5 animals).

Structures are written as SMILES.

`Cc1cc(Cl)cc2nc(N3CCN(C)CC3)oc12` [Example 31, 5-Chloro-7-methyl-2-(4-methyl-1-piperazinyl)benzoxazole]: the inhibition at 10 µM at serotonin 5-HT3 receptor [1] is 85%. Besides, at serotonin 5-HT3 receptor [2], the EC50 is 200 nM and the “Activation Action i.a.” value was found to be 0.24.
On to `Nc1cc2oc(N3CCNCC3)nc2cc1Cl` [Example 10, 6-Amino-5-chloro-2-(1-piperazinyl)benzoxazole], for which the inhibition at 10 µM at serotonin 5-HT3 receptor [1] was 88%. In addition, at serotonin 5-HT3 receptor [2], the EC50 is 676 nM and the “Activation Action i.a.” value was 0.69.
The like results for `C=CC[N+]1(C)CCN(c2nc3cc(Cl)ccc3o2)CC1` [Example 2] were, in that order, 90%, 224 nM and 0.57.
The matching figures for `C=CC[N+]1(C)CCN(c2nc3cc(Cl)c(N)cc3o2)CC1.[Br-]` [Example 7, 1-Allyl-1-methyl-4-(6-amino-5-chlorobenzoxazol-2-yl)piperazinium bromide]: 67%, 316 nM and 0.94.
For `COc1ccc2oc(N3CCN(C)CC3)nc2c1` [A, 5-methoxy-2-(4-methyl-1-piperazinyl)benzoxazole, reference compound], on serotonin 5-HT3 receptor [1], the inhibition at 10 µM worked out at 34%. For the same molecule, the “serotonin 5-HT3 receptor activating action (in words)” value at serotonin 5-HT3 receptor [2] is “does not have serotonin 5-HT3 receptor activating action”.
For the molecule `Cc1cc(C)c2oc(N3CCCN(C)CC3)nc2c1` [Example 36, 5,7-Dimethyl-2-(4-methyl-1-homopiperazinyl)benzoxazole], the inhibition at 10 µM on serotonin 5-HT3 receptor [1] stood at 96%. At serotonin 5-HT3 receptor [2], the EC50 is 63.1 nM and the “Activation Action i.a.” value came out at 0.28.
The matching figures for `CN1CCN(c2nc3cc(Cl)ccc3o2)CC1` [Example 1, 5-Chloro-2-(4-methyl-1-piperazinyl)benzoxazole]: 92%, 398 nM and 0.55.
The matching figures for `C=CC[N+]1(C)CCN(c2nc3cc(C)ccc3o2)CC1.[Br-]` [Example 25, 1-Allyl-1-methyl-4-(5-methylbenzoxazol-2-yl)piperazinium bromide]: 86%, 708 nM and 0.79.
For the molecule `Cc1cc(C)c2oc(N3CCNCC3)nc2c1` [Example 13, 5,7-Dimethyl-2-(1-piperazinyl)benzoxazole], the mortality entry in the series with mice is “No mortal case”. Besides, at serotonin 5-HT3 receptor [1], the inhibition at 10 µM stood at 100%. Moreover, on serotonin 5-HT3 receptor [2], the EC50 is 100 nM and the “Activation Action i.a.” value amounted to 0.18.
For the molecule `Cc1ccc2oc(C3CCNCC3)nc2c1` [Example 16, 2-(4-Piperidyl)-5-methylbenzoxazole], at serotonin 5-HT3 receptor [1], the inhibition at 10 µM turned out to be 82%. Besides, on serotonin 5-HT3 receptor [2], the EC50 was 617 nM and the “Activation Action i.a.” value is 0.24.
On to `c1ccc2oc(N3CCNCC3)nc2c1` [Example 14, 2-(1-Piperazinyl)benzoxazole], for which the inhibition at 10 µM on serotonin 5-HT3 receptor [1] stood at 75%.
Regarding `CN1CCN(c2nc3cc4ccccc4cc3o2)CC1` [B, 2-(4-methyl-1-piperazinyl)naphtho[2,3-d]oxazole, reference compound], the inhibition at 10 µM on serotonin 5-HT3 receptor [1] stood at 85%. At serotonin 5-HT3 receptor [2], the “serotonin 5-HT3 receptor activating action (in words)” value is “weak in comparison with the compounds of the present invention”, the EC50 was 3980 nM and the “Activation Action i.a.” value was 0.45.
In the case of `CN1CCN(c2nc3cc(Cl)c(N)cc3o2)CC1` [Example 5, 6-Amino-5-chloro-2-(4-methyl-1-piperazinyl)benzoxazole], at serotonin 5-HT3 receptor [1], the inhibition at 10 µM is 95%. Besides, at serotonin 5-HT3 receptor [2], the EC50 is 676 nM and the “Activation Action i.a.” value was determined as 0.59.
The matching figures for `Cc1cc(Cl)cc2nc(N3CCCN(C)CC3)oc12` [Example 37, 5-Chloro-7-methyl-2-(4-methyl-1-homopiperazinyl)benzoxazole]: 98%, 20 nM and 0.15.
For `C=CC[N+]1(C)CCN(c2nc3cccc(C)c3o2)CC1.[Br-]` [Example 28, 1-Allyl-1-methyl-4-(7-methylbenzoxazol-2-yl)piperazinium bromide], the mortality entry in the series on mice is given as “No mortal case”.
Consider `CN1CCCN(c2nc3c(ccc4ccccc43)o2)CC1` [Example 40, 2-(4-Methyl-1-homopiperazinyl)naphtho[1,2-d]oxazole], for which the inhibition at 10 µM on serotonin 5-HT3 receptor [1] was determined as 89%. On serotonin 5-HT3 receptor [2], the EC50 was 79.4 nM and the “Activation Action i.a.” value is listed as 0.21.
The like results for `CN1CCN(c2nc3c(ccc4ccccc43)o2)CC1` [Example 21, 2-(4-Methyl-1-piperazinyl)naphtho[1,2-d]oxazole] were, in that order, 85%, 501 nM and 0.26.
